In patent US20180344798A1, “TOPICALLY ACTIVE PEPTIDES FOR TREATING COSMETIC AND DERMATOLOGICAL CONDITIONS” (priority 2017, published 2018):
Values joined by “and” are separate entries in the source; they are usually repeats but may differ in a detail not shown here. Equal entries are not always repeated.

What was measured:
[1] = tested on: plasma inflammatory cytokines; conditions: Ruff, cited from earlier work
[2] = tested on: normal human epidermal keratinocytes; conditions: Hu, Paoletti, 2013; cited from earlier work
[3] = route of dosing not described; U.S. Pat. No. 5,798,335; cited from earlier work
[4] = aqueous solutions; U.S. Pat. No. 7,390,788; cited from earlier work
[5] = tested on: TLR4-mediated maturation of dendritic cells
Protocol: To determine whether all-D-TTNYT (SEQ ID NO: 1) blocks maturation of dendritic cells human PBMC's were isolated from peripheral blood by Ficoll-Paque centrifugation and then monocytes were isolated by negative selection using immunobeads (Miltenyi). Human monocyte derived immature dendritic cells (iDCs) were then generated by treating monocytes with GM-CSF/IL4 for 5 days.
The iDCs were treated with all-D-TTNYT (SEQ ID NO: 1) at 10^−12 M for 30 min. After 30 min LPS (100 ng/ml) was added to the cells and cells were analyzed after 48 hrs for surface maturation markers using fluorescent labeled antibodies by flow cytometry. […] The surface markers control T cell activation and localization in tissues. DCs, like microglia, are derived from differentiated monocytes and serve as the innate and adaptive sentinel cells of the skin and brain, respectively. Blockade of DC or microglial activation would suppress inflammation.

[6] = topical oil/water lotion 50 μg/ml, 2× per day, 28 days
Protocol: Self-reported “Severity Scores” on a scale of 1-10 (with 10 being most severe) were recorded in a daily symptom report form to record the symptom score and compliance. The change from baseline is plotted for the day 0, 7, 14, 21, 28 and 35 (one week “off” treatment) symptom scores.
Topical administration of all-D-TTNYT (SEQ ID NO: 1) was formulated in an oil/water lotion consisting of deionized water, caprylic/capric triglyceride, polyglyceryl-6-stearate, polyglyceryl-6-behenate, cetearyl alcohol, and glyceryl stearate.

[7] = tested on: DC maturation caused by LL37 (IGF-1R)
[8] = tested on: rodent spinal cord tissue; conditions: Rat, Padi, 2012; cited from earlier work
[9] = tested on: response to bradykinin; conditions: amounts up to 50,000 times the standard challenge of bradykinin; cited from earlier work
[10] = Hu, DAPTA administered for 7 weeks
[11] = Hu dendritic cells, peptide 10^-12 M 30 min, then LPS 100 ng/ml, 48 hrs, unpublished

Substance: Dalal-peptide T-amide [DAPTA]
- IL-1 change [1, 10]: decrease
- IL-6 change [1, 10]: decrease
- IL-8 change [1, 10]: decrease
- TNFα change [1, 10]: decrease
- anti-inflammatory cytokine IL-10 (M2-type) change ([1]; human subjects, DAPTA for 7 weeks): increased
- ICAM1 change [2]: decrease
- IL-6 change [2]: decrease
- IL-8 change [2]: decrease
- IL-23 change [2]: decrease
- pSTAT3 change [2]: decrease
- improvement of eczema/dermatitis in dogs [3]: Improvement in two dogs with dermatitis, mild improvement in five cases of erythema, and no improvement in ten cases
- aggregation and loss of potency upon storage [4]: high propensity for DAPTA to aggregate and lose potency

Substance: all-D-TTNYT
- CD58 change [5, 11]: decrease
- CD86 change [5, 11]: decrease
- DR change [5, 11]: decrease
- ICAM1 change [5, 11]: decrease
- expression of maturation markers CD86, HLA-DR, CD58 and ICAM1 ([5]; iDCs pre-treated with peptide, then LPS, flow cytometry): reduces expression of all the maturation markers
- self-reported Severity Scores in dermatocosmetic conditions ([6]; five subjects, scale 1-10): improved
- appearance of rosacea, atopic dermatitis, and psoriasis ([6]; subject reports): improvements in the appearance of rosacea, atopic dermatitis, and psoriasis
- effect on DC maturation of the four markers caused by LL37 [7]: no effect
- IL-1β change [8]: decrease
- IL-6 change [8]: decrease

Substance: all-D-TTNYT-NH2
- Timed Walk, Post (after topical lotion 50 μg/ml, 2× per day to feet, 28 days, measured fixed distance): 24 s
- Pain Score, Post (after topical lotion 50 μg/ml, 2× per day to feet, 28 days, scale 1-10, per subject): 3
- Timed Walk, Pre (before treatment (baseline), measured fixed distance): 48 s
- Pain Score, Pre (before treatment (baseline), self-reported scale 1-10, per subject): 7 and 6
- pain sensitivity on self-reported Severity Scores (two subjects with diabetic neuropathy symptoms, topical lotion 50 μg/ml, 2× per day): Reduced pain sensitivity

Substance: all-D-bradykinin
- inhibition of the response to bradykinin or bradykinin-like effect [9]: neither any inhibition of the response to bradykinin, or any bradykinin-like effect
